# Legend:
# [1] = tested on: Escherichia coli strain 2131; experiment: Ozone killing of microorganisms in solution; type: cell-based; conditions: 25° C.
# Protocol: A clinical isolate of Escherichia coli strain 2131 that had caused catheter-related infection was used. The organism was grown overnight in tryptic soy broth (TSB) at 37° C., then diluted to a concentration of 10^4 cfU/ml of normal saline. A 120 ml aliquot of the 10^4 cfU/ml working bacterial suspension was placed in each of two beakers at 25° C.: (1) In the experimental arm, ozone was bubbled into the bacterial suspension; (2) In the control arm, no ozone was bubbled. Four hours later, three samples of the bacterial suspension in each beaker and serial dilutions were inoculated onto blood agar plates. Colony counts were determined at 24 hours after incubation of the agar plates at 37° C. The following table summarizes the results of cultures: […]
# [2] = tested on: Escherichia coli strain 2131; experiment: Ozone killing of microorganisms on catheter surfaces; type: cell-based
# Protocol: A clinical isolate of Escherichia coli strain 2131 that had caused catheter-related infection was used. The organism was grown overnight in tryptic soy broth (TSB) at 37° C., then diluted to a concentration of 10^4 cfu/ml of TSB. The lumens of four 7-french, 20 -cm, triple-lumen polyurethane central venous catheters were filled with this working bacterial suspension and the catheters were then incubated at 25° C. for 4 hours. After draining the bacterial suspension from the lumens of catheters, the lumens were flushed with 1 ml of sterile normal saline. Using a closed dynamic flow system, the lumens of the four catheters were continually perfused for 4 hours at 25° C. with a recirculating total volume of 3 ml of sterile normal saline at a flow rate of 0.1 ml/minute. Ozone was continuously bubbled into the beaker containing the saline perfusing the lumens of two catheters (experimental arm), but no ozone was bubbled into the beaker containing the saline perfusing the lumens of the other two catheters (control arm). Four hours later, two 2 -cm segments from each of the four catheters (two in the experimental arm, and two in the control arm) were cultured onto blood agar plates using the sonication technique. Samples of the saline running through the experimental and control catheters were also inoculated onto blood agar plates. Colony counts were determined at 24 hours after incubation of the agar plates at 37° C. The following table summarizes the results of cultures of catheter segments: […]
smiles,measurement,setting,value
O=[O+][O-] [ozone],Number of E. coli colony forming units per ml (cfu/ml),"[1]; experimental arm: ozone bubbled into 10^4 cfu/ml bacterial suspension in normal saline, sampled four hours later, colony counts at 24 hours",0 cfu/ml
same,Ozone killing of E. coli in solution (result in words),"[1]; ozone bubbled into bacterial suspension, 4 hours",kills E. coli in solution
same,Number of E. coli colony forming units cultured from 2-cm catheter segments,"[2]; experimental arm: catheter lumens perfused 4 hours at 25° C. with saline continuously bubbled with ozone, sonication technique",0 colony forming units
same,Ozone killing of E. coli adhered to catheter surface (result in words),[2]; lumens perfused 4 hours with ozone-bubbled saline,kills E. coli that has adhered to the catheter surface
same,Concentration of E. coli in the saline solution used to perfuse the infected lumens of catheters,"[2]; ozone-bubbled saline after 4 hours perfusion, control 42×10^2 cfu/ml",9×10^2 cfu/ml

# Reference: patent US20030065292A1, “Ozonated medical devices and methods of using ozone to prevent complications from indwelling medical devices” (priority 2001, published 2003)
